US20250339409A1, “USES OF PAN BET INHIBITORS” (VYNE THERAPEUTICS INC., priority 2021, published 2025)
Read-outs that look alike come from different tables or passages of the source.

Key:
[1] = system: anti collagen antibodies induced arthritis (ACAIA); assay: ACAIA mice: hot plate withdrawal latency; format: in vivo, Balb/c mice
Protocol: On days 0, 5 and 11 animals are placed on hot plate apparatus (53±1° C.) and the time until the first response is observed and recorded.

[2] = system: IL4, IL13, IL31, CCL17, CCL26, CCL2 gene expression in Th2 stimulated human skin; assay: Th2 stimulated human skin explants, RT-qPCR of biomarkers; format: cell-based; settings: for inhibition at 0.01 µM / inhibition at 0.04 µM / inhibition at 0.16 µM / inhibition at 0.63 µM / inhibition at 2.5 µM / inhibition at 10 µM: Homo sapiens, calculated to Th2 stimulated control; for inhibition at 2.5 µM: 2.50 μM
Source text: Human skin biopsy tissue was stimulated to induce a Th17 immuno-phenotype using a method derived from Feghali-Bostwick et al. Induction of a Th17 phenotype in human skin—a mimic of dermal inflammatory diseases, Methods and Protocols, 2, 45 (2019). The pharmacodynamic assay described therein involves a similar paradigm to elicit a Th2 response and is used to evaluate the therapeutic potential of the active compounds (e.g., BETi1; and
Freshly excised healthy human skin tissue from abdominoplasties is defatted, cleaned and sectioned into 7 mm biopsies. The biopsies are placed in Transwell® inserts with the epidermis apical and exposed to air and the dermis submerged in media in the basal chamber. The biopsies are pre-treated overnight at 37° C., 5% CO2 with different compounds and controls added to the media in the basal chamber.
The next day, contents of the basal chamber is replaced with fresh media containing the test compound (listed below) and a stimulation cocktail for either Th2 inflammation (proprietary of service provider cocktail) or Th17 inflammation (mix of antibodies against CD3, CD28, IL-4, IFNγ and recombinant IL-1β, IL-6, IL-21, TGF-β). The biopsies are incubated at 37° C., 5% CO2 for a further 24 hrs.
A list of all the treatments is provided below: • 1. Untreated control (for both stimulations) • 2. Th2 stimulated control • 3. Th17 stimulated control • 4. Th2+BETia at 0.01, 0.04, 0.16, 0.63, 2.50, and 10 μM • 5. Th2+BETi1 at 0.01, 0.04, 0.16, 0.63, 2.50, and 10 μM • 6. Th2+Ruxolitinib at 0.01, 0.04, 0.16, 0.63, 2.50, and 10 μM • 7. Th2+betamethasone valerate 210 μM (equivalent to 0.01%) • 8. Th17+BETia at 10 μM • 9. Th17+BETi1 at 10 μM • 10. Th17+Ruxolitinib at 10 μM • 11. Th17+betamethasone valerate 210 μM (equivalent to 0.01%)
After harvesting, the biopsies are cut in half, and one half is homogenized and used for RNA extraction by standard methods and inflammatory pathways is assessed by RT-qPCR. The ability of BETi1 or BETia to inhibit the activity of up to six biomarkers per stimulation is reported as percent activity calculated to stimulated control and fold change in gene expression calculated to untreated control with respect to Th2 (IL4, IL13, IL31, CCL17, CCL26, CCL2) and Th17 (CXCL10, IL17α, IL22, IL36γ, CCL20, SerpinB4). Statistical analysis is performed on data sets from all 3 donors combined and compares the percent inhibition of each biomarker by each treatment calculated to its respective vehicle.
qPCR values were calculated using the relative quantification approach outlined by Livak, et al (2001) (Section 9, Reference 2). The Ct values (threshold cycle) defined as the fractional cycle number at which the amount of amplified target reaches a fixed threshold, were normalised to the Ct value of an internal biomarker or ‘housekeeping gene’ (GAPDH). The higher limit of detection was set at a Ct value of 40, and any target having not reached Ct by 40 cycles was set to this value. The delta Ct values (dt(Ct)) refers to the Ct of the gene of interest minus the Ct of the internal biomarker. The ddt(Ct) is the dt(Ct) value of the gene minus the average dt(Ct) value of the untreated samples. The ddt(Ct) is converted to power by the equation; =power(2,dt(Ct)). Fold change was calculated as ratio of the power of the gene of interest divided by the average power of the untreated samples. This normalizes the untreated samplers to a value of 1. For the comparison of multiple skin donors, the stimulated samples were normalized to 100% maximum activity (such to normalize variability between different skin donors). Percent activity was calculated as the percent increase or decrease in stimulation compared to the stimulated samples set at 100% maximum activity. Percent change was calculated as: Inhibition=(100−(avg % activity/stimulated)*100). Statistical analysis was performed using One-way ANOVA with Dunnett's Multiple Comparisons (non parametric). […]

[3] = Th2 stimulated human skin explants, 10 μM, compared to untreated skin

**Q.** Which results are given for `Cn1cc(-c2cccc(O)c2Oc2ccccc2)c2cc[nH]c2c1=O` [BETi1]?
**A.** Hot Plate Change in withdrawal latency (Avg.) ([1]; 0.01 mg/kg IA, Baseline): 11.57 s; Hot Plate Change in withdrawal latency (Avg.) ([1]; 0.01 mg/kg IA, Day 5): 11.86 s; Hot Plate Change in withdrawal latency (Avg.) ([1]; 0.01 mg/kg IA, Day 11): 12.00 s; Hot Plate Change in withdrawal latency (Avg.) ([1]; 0.1 mg/kg IA, Baseline): 11.14 s; Hot Plate Change in withdrawal latency (Avg.) ([1]; 0.1 mg/kg IA, Day 5): 10.43 s; Hot Plate Change in withdrawal latency (Avg.) ([1]; 0.1 mg/kg IA, Day 11): 9.57 s; Hot Plate Change in withdrawal latency (Avg.) ([1]; 1 mg/kg IA, Baseline): 11.71 s; Hot Plate Change in withdrawal latency (Avg.) ([1]; 1 mg/kg IA, Day 5): 11.57 s; Hot Plate Change in withdrawal latency (Avg.) ([1]; 1 mg/kg IA, Day 11): 11.29 s; Hot Plate Change in withdrawal latency (Avg.) ([1]; 10 mg/kg IA, Baseline): 10.57 s; Hot Plate Change in withdrawal latency (Avg.) ([1]; 10 mg/kg IA, Day 5): 12.00 s; Hot Plate Change in withdrawal latency (Avg.) ([1]; 10 mg/kg IA, Day 11): 11.00 s; inhibition at 0.01 µM ([2]; read-out: % Inhibition CCL17): 22.4%; inhibition at 0.01 µM ([2]; read-out: % Inhibition CCL26): 31.3%; inhibition at 0.01 µM ([2]; read-out: % Inhibition IL31): < 0%; inhibition at 0.01 µM ([2]; read-out: % inhibition CCL2): < 0%; inhibition at 0.01 µM ([2]; read-out: % inhibition IL4): 20.4%; inhibition at 0.01 µM ([2]; read-out: % inhibition IL13): 22.4%; inhibition at 0.04 µM ([2]; read-out: % Inhibition CCL17): < 0%; inhibition at 0.04 µM ([2]; read-out: % Inhibition CCL26): 10.9%; inhibition at 0.04 µM ([2]; read-out: % Inhibition IL31): < 0%; inhibition at 0.04 µM ([2]; read-out: % inhibition CCL2): < 0%; inhibition at 0.04 µM ([2]; read-out: % inhibition IL4): 51.8%; inhibition at 0.04 µM ([2]; read-out: % inhibition IL13): 3%; inhibition at 0.16 µM ([2]; read-out: % Inhibition CCL26): 15.2%; inhibition at 0.16 µM ([2]; read-out: % Inhibition IL31): ~74%; inhibition at 0.16 µM ([2]; read-out: % inhibition CCL2): 40%; inhibition at 0.16 µM ([2]; read-out: % inhibition IL4): 83.4%; inhibition at 0.16 µM ([2]; read-out: % inhibition IL13): 76.3%; inhibition at 0.63 µM ([2]; read-out: % Inhibition CCL17): 48%; inhibition at 0.63 µM ([2]; read-out: % Inhibition CCL26): < 0%; inhibition at 0.63 µM ([2]; read-out: % inhibition CCL2): 34.9%; inhibition at 0.63 µM ([2]; read-out: % inhibition IL4): ~80%; inhibition at 0.63 µM ([2]; read-out: % inhibition IL13): ~84%; inhibition at 2.5 µM ([2]; read-out: % Inhibition CCL17): 62.3%; inhibition at 2.5 µM ([2]; read-out: % Inhibition CCL26): < 0%; inhibition at 2.5 µM ([2]; read-out: % inhibition CCL2): 76.5%; inhibition at 2.5 µM ([2]; read-out: % inhibition IL4): 82%; inhibition at 2.5 µM ([2]; read-out: % inhibition IL13): 90.2%; inhibition at 10 µM ([2]; 10 μM, read-out: % Inhibition CCL17): ~62%; inhibition at 10 µM ([2]; 10 μM, read-out: % Inhibition CCL26): < 0%; inhibition at 10 µM ([2]; 10 μM, read-out: % Inhibition IL31): 95.4%; inhibition at 10 µM ([2]; 10 μM, read-out: % inhibition IL4): 74.9%; inhibition at 10 µM ([2]; 10 μM, read-out: % inhibition IL13): 93.3%; highest percent inhibition of IL4, IL13, IL31, and CCL2 gene expression ([2]; Th2-mediated stimulation, compared to stimulated and untreated): 76-85%; inhibition of interleukin IL-4 expression [2, 3]: 75%; inhibition of interleukin IL-13 expression [2, 3]: 93%; inhibition of interleukin IL-31 expression [2, 3]: 95%; reduction in CXCL10, IL-17a, IL-36γ, IL-4, IL-13 or IL-31 levels ([2]; human skin induced to exhibit Th2 or Th17 phenotype): > 75%
